Reference: ChEMBL document CHEMBL1136305, “Structure-activity relationships within a series of caspase inhibitors: effect of leaving group modifications” (Bioorg Med Chem Lett, 2003)

Key:
Jurkat = experiment: Cellular assay in a Fas-induced model of apoptosis in Jurkat cells; format: functional, cell-based; details: Homo sapiens
Caspase-8 (Homo sapiens) = Caspase-8 (Homo sapiens) (UniProt Q14790); experiment: Inhibitory activity against caspase-8 (Csp-8)
[1] = (§1) Cellular assay in a model of neuronal apoptosis involving cortical neurons exposed to concanavalin A; format: functional
Caspase-6 (Homo sapiens) [2] = molecular target: T1, Caspase-6 (Homo sapiens) (UniProt P55212); experiment: Inhibitory activity against caspase-6 (Csp-6)
T1 sequence (whole entry): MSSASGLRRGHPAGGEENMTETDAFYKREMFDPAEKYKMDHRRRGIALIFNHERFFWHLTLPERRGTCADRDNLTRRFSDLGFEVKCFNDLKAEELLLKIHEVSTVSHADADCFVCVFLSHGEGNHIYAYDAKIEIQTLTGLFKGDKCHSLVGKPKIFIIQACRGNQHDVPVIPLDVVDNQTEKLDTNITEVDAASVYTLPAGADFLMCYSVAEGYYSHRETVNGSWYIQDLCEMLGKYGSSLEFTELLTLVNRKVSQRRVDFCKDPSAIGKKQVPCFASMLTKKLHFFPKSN

Homo sapiens = species on record: Homo sapiens; experiment: Cellular assay in an inflammation model measuring IL1-beta secretion from isolated human monocytes induced with Staph A; format: functional
Caspase-1 (Mus musculus) = molecular target: T2, Caspase-1 (Mus musculus) (UniProt P29452); experiment: Inhibitory activity against murine caspase-1
T2 sequence (whole entry): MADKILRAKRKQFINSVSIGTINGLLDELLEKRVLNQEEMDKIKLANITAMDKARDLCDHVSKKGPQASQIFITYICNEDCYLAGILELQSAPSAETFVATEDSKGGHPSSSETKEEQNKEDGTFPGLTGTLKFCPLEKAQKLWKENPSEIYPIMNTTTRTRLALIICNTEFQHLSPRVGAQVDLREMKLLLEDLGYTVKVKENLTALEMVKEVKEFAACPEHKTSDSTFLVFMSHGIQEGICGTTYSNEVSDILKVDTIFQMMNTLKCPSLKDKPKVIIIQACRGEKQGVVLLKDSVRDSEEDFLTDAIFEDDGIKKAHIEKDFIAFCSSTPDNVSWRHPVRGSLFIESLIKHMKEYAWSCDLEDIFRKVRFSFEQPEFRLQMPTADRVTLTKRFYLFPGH

Caspase-3 (Homo sapiens) = molecular target: T3, Caspase-3 (Homo sapiens) (UniProt P42574); experiment: Inhibitory activity against caspase-3 (Csp-3)
T3 sequence (whole entry): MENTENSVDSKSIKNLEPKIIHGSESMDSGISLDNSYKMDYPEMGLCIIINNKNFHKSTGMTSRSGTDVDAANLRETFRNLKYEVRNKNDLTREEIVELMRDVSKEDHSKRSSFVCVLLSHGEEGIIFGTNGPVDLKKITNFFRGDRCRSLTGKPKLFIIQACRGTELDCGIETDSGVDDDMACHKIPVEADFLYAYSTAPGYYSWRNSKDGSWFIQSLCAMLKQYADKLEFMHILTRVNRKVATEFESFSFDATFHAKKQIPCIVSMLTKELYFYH

[3] = as §1; format: functional; remark: listed apart in the source
Caspase-3 = molecular target: T4, Caspase-3 (Homo sapiens, UniProt P42574); experiment: Binding affinity against caspase-3 (Csp-3)
T4 sequence (P42574 whole entry): T3 sequence (whole entry)

Caspase-1 = molecular target: T5, Caspase-1 (Mus musculus, UniProt P29452); experiment: Binding affinity against Murine caspase-1 (mCsp-1)
T5 sequence (P29452 whole entry): T2 sequence (whole entry)

Caspase-6 (Homo sapiens) [4] = molecular target: T1, Caspase-6 (Homo sapiens); experiment: Inhibitory activity against Caspase-6 (Csp-6); format: functional

Sequence of Caspase-8 (Homo sapiens) (Q14790 217-374 limits assumed): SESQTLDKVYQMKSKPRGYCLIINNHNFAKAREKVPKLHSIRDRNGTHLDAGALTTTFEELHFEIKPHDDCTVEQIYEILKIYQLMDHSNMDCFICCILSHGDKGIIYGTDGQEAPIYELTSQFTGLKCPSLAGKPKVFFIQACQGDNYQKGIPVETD
Sequence of Caspase-8 (Homo sapiens) (Q14790 385-479 limits assumed): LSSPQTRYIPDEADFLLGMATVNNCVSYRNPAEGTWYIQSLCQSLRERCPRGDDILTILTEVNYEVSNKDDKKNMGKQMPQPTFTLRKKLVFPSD

Compound	IC50 (Jurkat)	k3/Ki (Caspase-8 (Homo sapiens))	IC50 [1]	k3/Ki (Caspase-6 (Homo sapiens) [2])	IC50 (Homo sapiens)	k3/Ki (Caspase-1 (Mus musculus))	k3/Ki (Caspase-3 (Homo sapiens))	IC50 [3]	Ki (Caspase-3)	Ki (Caspase-1)	k3/Ki (Caspase-6 (Homo sapiens) [4])
CC(C)[C@H](NC(=O)COc1cccc2ccccc12)C(=O)N[C@@H](CC(=O)O)C(=O)COc1ccccc1	14 µM	4260 M⁻¹ s⁻¹	38 µM	2400 M⁻¹ s⁻¹	11.2 µM	3630 M⁻¹ s⁻¹	19200 M⁻¹ s⁻¹				
CC(C)[C@H](NC(=O)COc1cccc2ccccc12)C(=O)N[C@@H](CC(=O)O)C(=O)COC(=O)c1c(Cl)cccc1Cl	10.6 µM	17000 M⁻¹ s⁻¹		56900 M⁻¹ s⁻¹	11.5 µM	52100 M⁻¹ s⁻¹	725000 M⁻¹ s⁻¹	2.15 µM			
CC(C)[C@H](NC(=O)COc1cccc2ccccc12)C(=O)N[C@@H](CC(=O)O)C(=O)COc1c(F)cc(F)cc1F	6.84 µM	9080 M⁻¹ s⁻¹		5140 M⁻¹ s⁻¹	14.9 µM	20700 M⁻¹ s⁻¹	114000 M⁻¹ s⁻¹	2.35 µM			
CC(C)[C@H](NC(=O)COc1cccc2ccccc12)C(=O)N[C@@H](CC(=O)O)C(=O)COc1cccc(F)c1	> 100 µM	461 M⁻¹ s⁻¹		48 M⁻¹ s⁻¹	12 µM	2730 M⁻¹ s⁻¹	17800 M⁻¹ s⁻¹	> 50 µM			
CC(C)[C@H](NC(=O)COc1cccc2ccccc12)C(=O)N[C@@H](CC(=O)O)C(=O)COc1ccc([N+](=O)[O-])cc1F	30.3 µM	1850 M⁻¹ s⁻¹		1770 M⁻¹ s⁻¹	15.8 µM	12300 M⁻¹ s⁻¹	36500 M⁻¹ s⁻¹	6.2 µM			
CC(C)[C@H](NC(=O)COc1cccc2ccccc12)C(=O)N[C@@H](CC(=O)O)C(=O)CF	0.24 µM	71700 M⁻¹ s⁻¹			0.95 µM	129000 M⁻¹ s⁻¹	207000 M⁻¹ s⁻¹	3.05 µM			36800 M⁻¹ s⁻¹

Now from value to compound:

IC50 (Jurkat)	k3/Ki (Caspase-8 (Homo sapiens))	IC50 [1]	k3/Ki (Caspase-6 (Homo sapiens) [2])	IC50 (Homo sapiens)	k3/Ki (Caspase-1 (Mus musculus))	k3/Ki (Caspase-3 (Homo sapiens))	IC50 [3]	Ki (Caspase-3)	Ki (Caspase-1)	k3/Ki (Caspase-6 (Homo sapiens) [4])	Compound
> 100 µM				19 µM	354000 M⁻¹ s⁻¹	1.96e+06 M⁻¹ s⁻¹	2.65 µM	0.0071 µM	0.07 µM		CC(C)[C@H](NC(=O)COc1cccc2ccccc12)C(=O)N[C@@H](CC(=O)O)C(=O)COc1cccc2ccccc12
87.9 µM	1310 M⁻¹ s⁻¹		270 M⁻¹ s⁻¹	38.7 µM	1550 M⁻¹ s⁻¹	9990 M⁻¹ s⁻¹	> 50 µM	0.1 µM	2.68 µM		CC(C)[C@H](NC(=O)COc1cccc2ccccc12)C(=O)N[C@@H](CC(=O)O)C(=O)COc1ccc(-c2ccccc2)cc1
> 100 µM				15.9 µM	263 M⁻¹ s⁻¹	7520 M⁻¹ s⁻¹	> 50 µM	0.09 µM	3.17 µM		CC(C)[C@H](NC(=O)COc1cccc2ccccc12)C(=O)N[C@@H](CC(=O)O)C(=O)COc1ccc2ccccc2c1
> 100 µM	117 M⁻¹ s⁻¹		86 M⁻¹ s⁻¹	16.2 µM	1620 M⁻¹ s⁻¹	6460 M⁻¹ s⁻¹	17 µM				CC(C)[C@H](NC(=O)COc1cccc2ccccc12)C(=O)N[C@@H](CC(=O)O)C(=O)COc1ccc(F)c(F)c1
> 100 µM	196 M⁻¹ s⁻¹		77 M⁻¹ s⁻¹	12.3 µM	2580 M⁻¹ s⁻¹	13200 M⁻¹ s⁻¹	> 50 µM				CC(C)[C@H](NC(=O)COc1cccc2ccccc12)C(=O)N[C@@H](CC(=O)O)C(=O)COc1ccc(C(F)(F)F)cc1
30 µM	1470 M⁻¹ s⁻¹		1510 M⁻¹ s⁻¹	11.2 µM	14700 M⁻¹ s⁻¹	60100 M⁻¹ s⁻¹	3.75 µM				CC(C)[C@H](NC(=O)COc1cccc2ccccc12)C(=O)N[C@@H](CC(=O)O)C(=O)COc1cc(F)cc(F)c1F
